Measured values taken from ChEMBL document CHEMBL1201862, “PubChem BioAssay data set” (2004).
Activity calls are given as the source filed them.

Tests used:
[1] = molecular target: T1, Endoribonuclease toxin MazF (Escherichia coli K-12, UniProt P0AE70); assay: MazF endoribonuclease activators, SAR follow-up, biochemical, fluorescence, single-stranded RNA substrate (AID 588603); type: functional
T1 sequence (P0AE70 whole entry): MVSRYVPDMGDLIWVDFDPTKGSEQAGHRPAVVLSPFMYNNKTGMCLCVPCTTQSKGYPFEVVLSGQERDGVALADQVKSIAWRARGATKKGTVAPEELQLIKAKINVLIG

[2] = molecular target: T1, Endoribonuclease toxin MazF; assay: MazF toxin RNase activators, dose response, biochemical, fluorescence, single-stranded RNA substrate, uHTS hits (AID 588481); type: functional
MEF = assay: SAR analysis of small molecule cytotoxicity of MazEF TA System activators in embryonic fibroblast (MEF) cells. [Related pubchem assays (depositor defined):AID504720, AID504743]; type: functional; conditions: Mus musculus
[3] = molecular target: T1, Endoribonuclease toxin MazF; assay: SAR analysis of small molecule activators of the MazEF TA System via a fluorescence-based single-stranded RNase assay counterscreen. [Related pubchem assays (depositor defined):AID504720, AID504743]; type: functional
[4] = molecular target: T1, Endoribonuclease toxin MazF; assay: fluorescent RNA oligo signal without MazF, dose response, counter-screen for MazEF activator project, biochemical, fluorescence, single-stranded RNase substrate (AID 588502); type: functional
[5] = molecular target: T2, Heat shock factor protein 1 (Mus musculus, UniProt P38532); assay: inhibition of MG132-induced HSE-luciferase signal, confirmation, cell-based, NIH3T3, luminescence, dose retest (AID 2382); type: functional;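 further: NIH3T3 fibroblasts with HSF1-driven luciferase reporter stressed by proteasome inhibitor MG132; luminescence from HSF1-driven luciferase expression after 8 hours of MG132 stress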
T2 sequence (P38532 whole entry): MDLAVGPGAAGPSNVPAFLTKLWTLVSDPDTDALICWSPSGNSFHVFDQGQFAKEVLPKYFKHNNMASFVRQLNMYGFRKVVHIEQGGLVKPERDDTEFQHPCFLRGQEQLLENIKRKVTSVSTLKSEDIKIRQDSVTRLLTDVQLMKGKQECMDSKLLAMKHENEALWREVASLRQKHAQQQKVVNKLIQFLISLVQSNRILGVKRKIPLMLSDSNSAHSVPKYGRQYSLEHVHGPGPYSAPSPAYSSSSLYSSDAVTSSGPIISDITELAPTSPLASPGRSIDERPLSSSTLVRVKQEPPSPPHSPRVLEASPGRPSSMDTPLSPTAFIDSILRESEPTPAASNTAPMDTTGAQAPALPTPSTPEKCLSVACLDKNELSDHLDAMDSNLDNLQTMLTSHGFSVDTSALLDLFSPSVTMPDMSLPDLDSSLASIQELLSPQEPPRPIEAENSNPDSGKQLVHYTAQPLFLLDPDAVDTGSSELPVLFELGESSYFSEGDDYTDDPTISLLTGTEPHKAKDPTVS

[6] = molecular target: T3, Replicative DNA helicase DnaB (Mycobacterium tuberculosis, UniProt P9WMR3); assay: DnaB intein splicing inhibitors, dose response, biochemical, cell-free fluorescence (AID 449749); type: functional
T3 sequence (P9WMR3 whole entry): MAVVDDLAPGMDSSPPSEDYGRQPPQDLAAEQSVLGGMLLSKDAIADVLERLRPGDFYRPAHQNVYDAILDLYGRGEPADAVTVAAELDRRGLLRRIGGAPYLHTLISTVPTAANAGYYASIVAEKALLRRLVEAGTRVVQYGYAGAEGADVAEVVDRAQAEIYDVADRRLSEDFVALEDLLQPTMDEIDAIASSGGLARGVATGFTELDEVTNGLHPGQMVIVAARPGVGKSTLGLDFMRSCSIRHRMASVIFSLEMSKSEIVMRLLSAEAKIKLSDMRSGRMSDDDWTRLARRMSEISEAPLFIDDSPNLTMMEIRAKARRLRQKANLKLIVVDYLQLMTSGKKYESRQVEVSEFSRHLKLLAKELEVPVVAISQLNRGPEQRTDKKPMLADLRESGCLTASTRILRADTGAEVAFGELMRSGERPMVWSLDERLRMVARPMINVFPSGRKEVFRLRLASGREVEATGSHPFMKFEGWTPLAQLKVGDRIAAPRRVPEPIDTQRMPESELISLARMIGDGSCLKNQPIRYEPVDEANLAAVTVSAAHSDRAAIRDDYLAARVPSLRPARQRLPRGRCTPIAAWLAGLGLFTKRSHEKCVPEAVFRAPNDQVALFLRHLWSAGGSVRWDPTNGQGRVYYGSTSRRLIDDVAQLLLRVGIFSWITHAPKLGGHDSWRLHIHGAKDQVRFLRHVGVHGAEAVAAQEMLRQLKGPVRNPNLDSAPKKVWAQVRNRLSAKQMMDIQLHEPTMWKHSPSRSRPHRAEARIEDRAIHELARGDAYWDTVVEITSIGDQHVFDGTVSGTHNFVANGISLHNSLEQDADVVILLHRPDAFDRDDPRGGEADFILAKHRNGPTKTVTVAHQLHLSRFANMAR

Vero = Vero cell cytotoxicity, cytotoxicity control for flavivirus capping enzyme inhibitors (AID 588742); type: functional; conditions: Chlorocebus sabaeus
Protein RecA = molecular target: T4, Protein RecA (Mycobacterium tuberculosis, UniProt P9WHJ3); assay: Fluorescence Cell-Free Homogeneous Dose Retest to Identify Inhibitors of RecA-Intein Splicing Activity. [Related pubchem assays (depositor defined):AID2097, AID2223, AID489010, AID492950]; type: functional
T4 sequence (P9WHJ3 whole entry): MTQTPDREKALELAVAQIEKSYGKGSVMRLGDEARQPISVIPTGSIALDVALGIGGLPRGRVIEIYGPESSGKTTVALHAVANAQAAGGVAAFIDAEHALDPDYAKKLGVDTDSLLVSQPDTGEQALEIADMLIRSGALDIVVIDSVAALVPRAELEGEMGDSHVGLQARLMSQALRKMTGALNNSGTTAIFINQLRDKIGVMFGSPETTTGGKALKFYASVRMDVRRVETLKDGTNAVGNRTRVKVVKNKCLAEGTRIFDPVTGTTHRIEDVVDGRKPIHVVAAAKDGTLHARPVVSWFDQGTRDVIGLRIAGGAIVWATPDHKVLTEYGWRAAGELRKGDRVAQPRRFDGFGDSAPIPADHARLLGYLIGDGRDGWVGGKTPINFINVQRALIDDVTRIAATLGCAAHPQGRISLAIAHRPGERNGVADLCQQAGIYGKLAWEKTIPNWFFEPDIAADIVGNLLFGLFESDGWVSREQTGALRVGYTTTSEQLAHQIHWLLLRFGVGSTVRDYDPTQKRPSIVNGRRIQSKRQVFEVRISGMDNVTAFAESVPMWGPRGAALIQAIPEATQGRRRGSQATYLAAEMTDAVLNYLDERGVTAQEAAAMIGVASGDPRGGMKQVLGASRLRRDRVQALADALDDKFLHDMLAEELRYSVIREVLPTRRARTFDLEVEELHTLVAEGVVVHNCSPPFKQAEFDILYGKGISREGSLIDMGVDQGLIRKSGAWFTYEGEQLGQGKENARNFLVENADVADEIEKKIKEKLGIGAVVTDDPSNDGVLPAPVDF

INS1 = assay: beta cell apoptosis inhibitors, cytokine rescue, dose response, luminescence, retest (AID 449756); type: functional, cell-based; conditions: Rattus norvegicus;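 further: cell death triggered by IL-1 beta plus TNF-alpha plus IFN-gamma mixture; protective hits raise ATP signal compared with cytokine alone wells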
Genome polyprotein = Genome polyprotein (dengue virus type 2, UniProt P29990); assay: Dengue-2 NS5 methyltransferase inhibitors, primary screen, biochemical, confirmation dose response (AID 588689); type: functional
Chain of Genome polyprotein (P29990 2492-3391 limits assumed): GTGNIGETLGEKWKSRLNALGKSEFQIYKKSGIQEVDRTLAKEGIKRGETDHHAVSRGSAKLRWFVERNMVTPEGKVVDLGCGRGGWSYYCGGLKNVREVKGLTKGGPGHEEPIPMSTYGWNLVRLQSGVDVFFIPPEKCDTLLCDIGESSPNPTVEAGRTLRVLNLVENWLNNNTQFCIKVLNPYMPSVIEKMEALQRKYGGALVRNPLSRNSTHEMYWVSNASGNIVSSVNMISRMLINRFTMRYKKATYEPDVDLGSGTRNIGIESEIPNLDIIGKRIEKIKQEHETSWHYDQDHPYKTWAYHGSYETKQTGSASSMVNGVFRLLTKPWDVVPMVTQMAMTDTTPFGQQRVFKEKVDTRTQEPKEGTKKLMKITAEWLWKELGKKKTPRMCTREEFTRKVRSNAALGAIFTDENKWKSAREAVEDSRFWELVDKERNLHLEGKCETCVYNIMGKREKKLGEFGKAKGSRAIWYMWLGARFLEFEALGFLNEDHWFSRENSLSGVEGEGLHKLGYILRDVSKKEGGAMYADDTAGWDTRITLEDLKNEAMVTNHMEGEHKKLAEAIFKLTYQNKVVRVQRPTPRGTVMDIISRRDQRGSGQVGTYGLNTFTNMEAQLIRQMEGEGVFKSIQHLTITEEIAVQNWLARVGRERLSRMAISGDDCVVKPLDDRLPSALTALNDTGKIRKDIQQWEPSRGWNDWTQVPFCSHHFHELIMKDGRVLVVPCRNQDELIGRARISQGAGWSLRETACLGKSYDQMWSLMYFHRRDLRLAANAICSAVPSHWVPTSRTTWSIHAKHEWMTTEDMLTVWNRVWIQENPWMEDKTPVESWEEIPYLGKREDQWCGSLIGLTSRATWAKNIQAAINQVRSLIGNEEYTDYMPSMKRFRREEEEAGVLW

Protein S100-A4 = Protein S100-A4 (Homo sapiens, UniProt P26447); assay: S100A4-myosin IIA binding inhibitor potency, dose response, biochemical, fluorescence polarization, cherry-picked hits (AID 687001); type: functional
Chain of Protein S100-A4 (P26447 whole entry): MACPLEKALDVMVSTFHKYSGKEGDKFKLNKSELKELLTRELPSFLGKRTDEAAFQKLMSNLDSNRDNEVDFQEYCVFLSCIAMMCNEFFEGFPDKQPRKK

Caspase-6 = molecular target: T5, Caspase-6 (Homo sapiens, UniProt P55212); assay: human caspase-6 inhibitors, dose response, biochemical, VEID-R110 fluorescence, cherry-pick (AID 720632)
T5 sequence (P55212 whole entry): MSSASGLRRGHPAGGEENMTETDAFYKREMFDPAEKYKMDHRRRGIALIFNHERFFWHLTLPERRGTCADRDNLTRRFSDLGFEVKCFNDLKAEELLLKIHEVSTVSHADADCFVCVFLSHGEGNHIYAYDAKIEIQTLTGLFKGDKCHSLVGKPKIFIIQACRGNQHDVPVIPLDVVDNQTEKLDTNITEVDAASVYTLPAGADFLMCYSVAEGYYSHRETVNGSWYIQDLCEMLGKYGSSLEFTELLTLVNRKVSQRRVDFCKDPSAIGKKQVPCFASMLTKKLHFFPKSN

[7] = molecular target: T6, Tyrosyl-DNA phosphodiesterase 2 (Homo sapiens, UniProt O95551); assay: human TDP2 enzyme inhibitors, dose response, biochemical, epi absorbance, IC50 (AID 743297)
T6 sequence (O95551 whole entry): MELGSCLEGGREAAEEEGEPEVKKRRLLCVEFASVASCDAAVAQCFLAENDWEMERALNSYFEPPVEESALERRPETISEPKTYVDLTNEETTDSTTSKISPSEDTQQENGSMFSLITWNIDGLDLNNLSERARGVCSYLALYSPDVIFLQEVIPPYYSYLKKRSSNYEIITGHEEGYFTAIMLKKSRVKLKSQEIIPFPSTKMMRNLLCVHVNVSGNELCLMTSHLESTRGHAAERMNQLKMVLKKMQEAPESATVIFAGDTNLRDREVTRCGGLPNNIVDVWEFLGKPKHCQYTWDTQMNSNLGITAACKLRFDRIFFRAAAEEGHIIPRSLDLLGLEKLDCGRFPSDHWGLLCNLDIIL

SMILES | EC50 [1] | EC50 [2] | CC50 (MEF) | EC50 [3] | EC50 [4] | EC50 [5] | AC50 [6] | CC50 (Vero) | EC50 (Protein RecA) | AC50 (INS1) | IC50 (Genome polyprotein) | AC50 (Protein S100-A4) | AC50 (Caspase-6) | IC50 [7]
Cc1ccc(C(=O)Oc2cc(N)n(S(=O)(=O)c3ccc(F)cc3)n2)cc1 | > 99 µM (inactive) | 5.26 µM (active) | > 99 µM (inactive) | > 99 µM (inactive) | 4.1 µM (active) |  |  |  |  |  |  |  |  | 
CCC(CNc1cc(OC)cc2cccnc12)NC1CCCCC1 (centres undefined) |  |  |  |  |  | > 195 µM (not active) | > 380 µM (inactive) | > 40 µM (active) | 1.95 µM (active) | 7.62 µM (active) | 39.2 µM (active) | 5.07 µM (active) | 39 µM (active) | 113 µM (inactive)
